1 substance from patent US12480846B2, “Multi-mode separation for target detection and cell growth monitoring” (THE REGENTS OF THE UNIVERSITY OF MICHIGAN, priority 2012, dated 2025) can be followed below.

The test system of the test is E. coli O157:H7. Description: Solid-interface AMBR biosensor measurement of bacterial growth in 384 well plate. The format is cell-based. To be noted: antibiotic above the MIC in the surrounding media, 0.5 μg/ml gentamicin. From the text: In previous AMBR applications at air-water and/or oil-water interfaces, the rotation period of the sensor slows down in response to bacterial growth; however, on solid interfaces there is an additional “dip” in the beginning of the data. Typical results for measuring bacterial growth, using the solid interface AMBR method are shown in FIG. 11, where the initial speeding up and then slowing down can be seen. […] This is true since the dip (or the slowing down) was not seen in wells with the same amount of bacteria, but that lacked nutrients (performed in PBS buffer), or contained antibiotics above the minimum inhibition concentrations.
Laboratory measurements have established that the speeding up happens with motile and non-motile, gram-negative and gram-positive cells, and with rod-like and coccal bacteria. […]
Anti-E. coli O157 functionalized, 2.8 μm diameter magnetic particles (20 μl, Invitrogen 710-03) were mixed with bacteria diluted to 10^4 CFU/ml (0.9 ml), and allowed to incubate (10 min at 37° C.) with end-over-end agitation. […] For colony counting, the samples were diluted appropriately, plated on a MH plate and the colonies were counted 18 hours later to obtain accurate bacterial concentrations and magnetic separation capture efficiencies. […]

gentamicin: the “change in rotational period of AMBR biosensor (bacterial growth response)” value was “no change in rotational period”.
